Data as given in paper PMC12562637 (Genes, 2025).

Key:
[1] = cited from earlier work
[2] = Bleeding events (ISTH definition) in NVAF patients receiving apixaban; association by odds ratio; type: in vivo, human
Description: The severity of bleeding was evaluated based on the definition provided by the International Society on Thrombosis and Hemostasis. In brief, events leading to a reduction in hemoglobin levels by at least 2 g/dL, fatal bleeding, or events occurring in critical body locations were considered major bleeding events. Events that required hospitalization, medical or surgical intervention, or a change in antithrombotic treatment were considered clinically relevant non-major. Any acute bleeding event not meeting the criteria for major or clinically relevant non-major bleeding was classified as a minor bleeding episode.
In all enrolled patients, allele-specific real-time PCR was used to identify polymorphic variants of ABCB1 (rs1045642 3435C>T, rs2032582 2677G>T/A, rs1128503 1236C>T), CYP3A4*22 (rs35599367), and CYP3A5*3 (rs776746, 6986A>G). Commercial kits (OOO Syntol, Moscow, Russia) were employed on a CFX96 Touch™ Real-Time PCR Detection System (Bio-Rad, Hercules, CA, USA).
The study data were subjected to statistical processing using both parametric and nonparametric methods. Statistical analyses were performed with the standard software package StatSoft Statistica 10.0 (Dell, Round Rock, TX, USA). Quantitative variables were assessed for normality using the Kolmogorov–Smirnov test (for sample sizes > 50), as well as by evaluating skewness and kurtosis. For quantitative variables with a normal distribution, the data were organized into variational series, and arithmetic means (M) with standard deviations (SD) were calculated. Comparisons of means in normally distributed quantitative datasets were performed using Student’s t-test, with obtained values evaluated against critical thresholds. For categorical variables, differences in frequency distributions were assessed using the χ^2 test, and Fisher’s exact test was applied when the number of observations was small. To quantify the effect of genetic markers on complication occurrence, odds ratios (ORs) with 95% confidence intervals (CIs) were calculated. Statistical significance for all analyses was defined at p < 0.05. For genetic analyses, multiple-testing correction was performed using the Benjamini–Hochberg false discovery rate (FDR) procedure.

Row | Structure (SMILES) | Interindividual variability in exposure [1] | Intraindividual variability in exposure [1] | Bleeding event in the context of surgery ([2]; both, human, in vivo) | Epistaxis ([2]; both, human, in vivo) | Gastrointestinal bleeding ([2]; both, human, in vivo) | Hematomas and ecchymoses ([2]; both, human, in vivo) | Peptic ulcer exacerbation ([2]; both, human, in vivo) | Uterine bleeding ([2]; both, human, in vivo) | OR of bleeding events by sex ([2]; both, human, in vivo, 1.95 years) | Association with incidence of bleeding events ([2]; simvastatin (n = 8) as co-medication with apixaban)
1 | COc1ccc(-n2nc(C(N)=O)c3c2C(=O)N(c2ccc(N4CCCCC4=O)cc2)CC3)cc1 [apixaban] | ~30% | approximately 20% | 1 case | 31 cases | 3 cases | 3 cases | 1 case | 1 case | 1.119 | –
2 | CCC(C)(C)C(=O)O[C@H]1C[C@@H](C)C=C2C=C[C@H](C)[C@H](CC[C@@H]3C[C@@H](O)CC(=O)O3)[C@H]21 [simvastatin] | – | – | – | – | – | – | – | – | – | did not show an increase in incidence of bleeding events
